Among the data in PubChem BioAssay (NCI) are GI50 and TGI values, retold here.

Test systems include COLO 205 colon; EKVX NSCLC; HCT-15 colon; HL-60(TB) leukemia; K-562 leukemia; LOX IMVI melanoma; OVCAR-4 ovarian; RXF 393 renal; SR leukemia; UO-31 renal.
What all share (assay): NCI anticancer screen, dose series, 48 h

Values joined by “and” are separate entries in the source; they are usually repeats but may differ in a detail not shown here. Identical values can stand only once.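 Briefly, cells in 96-well plates were exposed to five compound concentrations for 48 h, and endpoints were estimated by linear interpolation. GI50 marks 50% less growth. Definition used: TGI = concentration required for complete inhibition of growth.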 A value given as a limit tells only on which side of the number the result lay.

`O=S(=O)(NCCNc1nccc(-c2c(-c3ccc(F)c(O)c3)nc3sccn23)n1)c1ccc(F)cc1`: the GI50 in the test on COLO 205 colon is 5.62 µM; in the test with EKVX NSCLC it was 5.42 µM; in the test on HCT-15 colon it was 3.25 µM; with HL-60(TB) leukemia, 2.14 µM; with K-562 leukemia it was 2.55 µM; in the test on LOX IMVI melanoma, 0.675 µM. For the same compound, the GI50 is 3.9 µM in the test with OVCAR-4 ovarian, 2.17 µM in the test on RXF 393 renal, 1.34 µM in the test with SR leukemia and 4.02 µM in the test with UO-31 renal. Also, the TGI in the test on COLO 205 colon was 36.1 µM; with EKVX NSCLC, 60.6 µM; in the test on HCT-15 colon it was 52.6 µM; with HL-60(TB) leukemia, 6.09 µM; in the test on K-562 leukemia it was over 100 µM; in the test on LOX IMVI melanoma it was 18 µM. Also, the TGI in the test with OVCAR-4 ovarian was 14.7 µM; in the test with RXF 393 renal, 5.46 µM; in the test on SR leukemia it was over 100 µM; in the test on UO-31 renal it was 15.1 µM.
`COc1cc(OC)c(C(=O)/C=C/c2cc3c(cc2OCc2ccccc2)OC(C)(C)CC3)cc1CC=C(C)C`: the GI50 was 3.97 µM in the test with COLO 205 colon; 6.73 µM in the test on EKVX NSCLC; 3.84 µM with HCT-15 colon; 5.43 µM in the test on HL-60(TB) leukemia; 4.26 µM in the test with K-562 leukemia; 3.25 µM in the test on LOX IMVI melanoma. The GI50 in the test on OVCAR-4 ovarian was 4.06 µM; in the test with RXF 393 renal, 5.91 µM; in the test on SR leukemia it was 2.77 µM; in the test on UO-31 renal, 13 µM. Besides, the TGI in the test with COLO 205 colon was 8.9 µM; in the test with EKVX NSCLC, 22.6 µM; in the test on HCT-15 colon, 9.68 µM; with HL-60(TB) leukemia, 17.1 µM; in the test with K-562 leukemia it was over 25 µM; in the test with LOX IMVI melanoma it was 7.17 µM. Besides, the TGI was 14.3 µM in the test with OVCAR-4 ovarian, 17.1 µM in the test with RXF 393 renal, 22.8 µM in the test on SR leukemia and over 25 µM in the test with UO-31 renal.
On to `CCc1ccc(NC(=O)NC(=O)c2ccccc2[N+](=O)[O-])cc1Oc1ncc(Cl)cn1`, for which the TGI in the test on COLO 205 colon is 0.106 µM; with EKVX NSCLC, over 100 µM; in the test with HCT-15 colon, over 100 µM; in the test with HL-60(TB) leukemia, 0.0247 µM; with K-562 leukemia it was over 100 µM; with LOX IMVI melanoma, 14.5 µM. Also, the TGI with OVCAR-4 ovarian is over 100 µM; in the test on RXF 393 renal it was 73.4 µM; with SR leukemia, over 100 µM; in the test on UO-31 renal, 45.5 µM.
Consider `CN(C)CCNc1ccc(CO)c2sc3ccc(O)cc3c(=O)c12`, for which the TGI with COLO 205 colon was 16.8 µM; with EKVX NSCLC, 19.1 µM; in the test on HCT-15 colon, 14.2 µM; in the test with HL-60(TB) leukemia it was 6.13 µM; with K-562 leukemia, over 20.9 µM; with LOX IMVI melanoma, 6.75 µM. Also, the TGI with OVCAR-4 ovarian is 13.1 µM; in the test with RXF 393 renal, 4.44 µM; in the test with SR leukemia it was 0.78 µM; in the test on UO-31 renal, 6.68 µM.
As for `COc1ccc(NC(=O)CSC2=C(Nc3cccc(Br)c3)C(=O)N(Cc3ccccc3)C2=O)cc1Cl`, the GI50 is over 100 µM in the test on COLO 205 colon; 84.8 µM in the test with EKVX NSCLC; over 100 µM with HCT-15 colon; 3.41 µM in the test with HL-60(TB) leukemia; 4.41 µM with K-562 leukemia; 40.4 µM with LOX IMVI melanoma. Moreover, the GI50 with OVCAR-4 ovarian is over 100 µM; in the test with RXF 393 renal, over 100 µM; in the test on SR leukemia, 3.02 µM; with UO-31 renal it was 12.5 µM. The TGI with COLO 205 colon, with EKVX NSCLC, with HCT-15 colon, in the test on HL-60(TB) leukemia, in the test with K-562 leukemia and in the test on LOX IMVI melanoma was over 100 µM each time. Besides, the TGI in the test on OVCAR-4 ovarian is over 100 µM; with RXF 393 renal it was over 100 µM; in the test with SR leukemia, 24.3 µM; with UO-31 renal, over 100 µM.
`Cc1nc(N)nc2c1CCC(O)S2` (stereo unspecified): the GI50 in the test with COLO 205 colon was 5.31 µM; with EKVX NSCLC, 24.8 µM; in the test with HCT-15 colon it was 26.3 µM; in the test on HL-60(TB) leukemia it was 11.4 µM; in the test on K-562 leukemia it was 5.18 µM; in the test with LOX IMVI melanoma, 10.4 µM. For the same compound, the GI50 in the test with OVCAR-4 ovarian is 3.26 µM; in the test with RXF 393 renal it was 5.4 µM; in the test on SR leukemia, 4.21 µM; in the test with UO-31 renal, 39.7 µM. In addition, the TGI with COLO 205 colon is 16.7 µM; in the test on EKVX NSCLC, 93.2 µM; in the test on HCT-15 colon it was over 100 µM; with HL-60(TB) leukemia it was 33 µM; in the test on K-562 leukemia it was over 100 µM; in the test with LOX IMVI melanoma, 24.5 µM. Also, the TGI is 14.2 µM in the test with OVCAR-4 ovarian, 27 µM in the test with RXF 393 renal, over 100 µM in the test on SR leukemia and over 100 µM in the test with UO-31 renal.
As to `CCCCCCCCCCCCCCCCCC1=NC(C)(C)CN1CC(C)O` (stereo unspecified), the GI50 with COLO 205 colon is 2.5 µM; with EKVX NSCLC it was 13.7 µM; in the test on HCT-15 colon it was 1.88 µM; in the test on HL-60(TB) leukemia it was 4.82 µM; with K-562 leukemia, 2.45 µM; with LOX IMVI melanoma, 1.81 µM. Moreover, the GI50 is 12.5 µM in the test with OVCAR-4 ovarian, 14.2 µM in the test on RXF 393 renal, 2.75 µM in the test with SR leukemia and 13.8 µM in the test with UO-31 renal. For the same compound, the TGI in the test with COLO 205 colon came to 6.61 µM; in the test on EKVX NSCLC it was 30.1 µM; in the test with HCT-15 colon it was 3.95 µM; in the test with HL-60(TB) leukemia it was 24.8 µM; in the test on K-562 leukemia it was 5.44 µM; in the test with LOX IMVI melanoma, 3.44 µM. The TGI in the test on OVCAR-4 ovarian was 28.4 µM; with RXF 393 renal it was 31.9 µM; in the test with SR leukemia, over 100 µM; with UO-31 renal, 29.4 µM.
As for `CCC(=O)c1c(NOC2OCC(OC(C)=O)C(OC(C)=O)C2OC(C)=O)nc(OC)n(C)c1=O` (stereo unspecified), the TGI in the test with COLO 205 colon, in the test with EKVX NSCLC, in the test with HCT-15 colon, in the test with HL-60(TB) leukemia, in the test on K-562 leukemia and in the test with LOX IMVI melanoma was over 100 µM each time. Moreover, the TGI in the test on OVCAR-4 ovarian, in the test with RXF 393 renal, in the test on SR leukemia and in the test with UO-31 renal was over 100 µM in each case.
Turning to `CCC1CC2C(=O)N(c3ccccc3)C(=O)C2c2[nH]c3ccccc3c21` (stereo unspecified), the TGI with COLO 205 colon was 78.5 µM; with EKVX NSCLC it was 95.3 µM; in the test on HCT-15 colon, over 100 µM; in the test with HL-60(TB) leukemia, 98 µM; in the test with K-562 leukemia, over 100 µM; in the test with LOX IMVI melanoma it was 47.8 µM. Moreover, the TGI was 25.6 µM with OVCAR-4 ovarian, 59.6 µM with RXF 393 renal, over 100 µM with SR leukemia and over 100 µM with UO-31 renal.
Turning to `O=C1c2ccccc2-[n+]2ccc3c([nH]c4ccccc43)c21`, the TGI is 0.498 µM in the test on COLO 205 colon; 1.6 µM in the test on EKVX NSCLC; over 100 µM in the test with HCT-15 colon; 1.38 µM in the test with HL-60(TB) leukemia; 3.31 µM in the test with K-562 leukemia; 0.81 µM in the test with LOX IMVI melanoma. The TGI is 2.02 µM in the test with OVCAR-4 ovarian, 1.26 µM with RXF 393 renal, 0.846 µM in the test on SR leukemia and 3.28 µM in the test on UO-31 renal.
With `CC1/C=C/[C@@]2(C)CCC(C(C)(C)O)C2C(O)C[C@](C)(O)/C=C/C1` (stereo partly specified), the TGI with COLO 205 colon, in the test with EKVX NSCLC, in the test on HCT-15 colon, in the test on HL-60(TB) leukemia, with K-562 leukemia and in the test on LOX IMVI melanoma was over 100 µM in each case. Besides, the TGI in the test on OVCAR-4 ovarian, with RXF 393 renal, in the test on SR leukemia and in the test on UO-31 renal was over 100 µM throughout.
In the case of `O=C(NOC[C@H](O)CO)c1ccc(F)c(F)c1Nc1ccc(I)cc1F`, the GI50 with COLO 205 colon is < 0.01 µM and 0.00143 µM; with EKVX NSCLC, 0.101 µM and 0.0891 µM; in the test on HCT-15 colon, 2.73 µM and 0.919 µM; with HL-60(TB) leukemia, < 0.01 µM and 0.0166 µM; in the test with LOX IMVI melanoma, < 0.0127 µM and 0.0397 µM; with OVCAR-4 ovarian, 8.76 µM and > 10 µM. Also, the GI50 in the test on RXF 393 renal was 0.363 µM and 0.342 µM; with SR leukemia, over 10 µM; in the test on UO-31 renal it was 0.302 µM and 0.0357 µM. Also, the TGI in the test on COLO 205 colon is over 100 µM; in the test with EKVX NSCLC, over 100 µM; with HCT-15 colon, over 100 µM; with HL-60(TB) leukemia, over 100 µM; in the test on K-562 leukemia, over 100 µM; in the test on LOX IMVI melanoma, 19.9 µM and > 6.5 µM. The TGI was over 100 µM with OVCAR-4 ovarian; 43.4 µM and > 10 µM with RXF 393 renal; over 100 µM with SR leukemia; over 72.2 µM in the test on UO-31 renal.
In the case of `C=C(CC(NC(=O)c1ccc(C(CC)Cc2cnc3nc(N)nc(N)c3n2)cc1)C(=O)O)C(=O)O` (stereo unspecified), the TGI in the test on COLO 205 colon, in the test on EKVX NSCLC, in the test with HCT-15 colon, in the test on HL-60(TB) leukemia, with K-562 leukemia and with LOX IMVI melanoma was over 100 µM each time. In addition, the TGI in the test with OVCAR-4 ovarian, with RXF 393 renal, in the test on SR leukemia and in the test on UO-31 renal was over 100 µM each time. Further, the GI50 with OVCAR-4 ovarian was over 100 µM; in the test on UO-31 renal it was 0.0271 µM.
With `CCOC(=O)C(Cc1c[nH]c2c(N(CCO)CCO)cccc12)(NC(C)=O)C(=O)OCC`, the GI50 in the test with COLO 205 colon is 330 µM; in the test on EKVX NSCLC it was over 1000 µM; in the test on HCT-15 colon it was 182 µM; with HL-60(TB) leukemia it was 318 µM; with K-562 leukemia it was 194 µM; in the test on LOX IMVI melanoma, 141 µM. The GI50 is 196 µM with OVCAR-4 ovarian, over 1000 µM with RXF 393 renal, 144 µM in the test on SR leukemia and over 1000 µM in the test on UO-31 renal. Further, the TGI in the test on COLO 205 colon was over 1000 µM; in the test on EKVX NSCLC, over 1000 µM; in the test with HCT-15 colon, over 1000 µM; with HL-60(TB) leukemia, over 1000 µM; in the test with K-562 leukemia, 516 µM; in the test with LOX IMVI melanoma it was 283 µM. The TGI with OVCAR-4 ovarian was over 1000 µM; in the test with RXF 393 renal it was over 1000 µM; in the test on SR leukemia, 890 µM; in the test on UO-31 renal, over 1000 µM.
